Measurements published in ChEMBL document CHEMBL2034833, “Synthesis of chalcone-amidobenzothiazole conjugates as antimitotic and apoptotic inducing agents” (Bioorg Med Chem, 2012).

Tests used:
UACC-62 = assay: Growth inhibition of human UACC62 cells after 48 hrs by sulforhodamine B assay; type: functional; settings: UACC-62, 48 h
A549 [1] = assay: Cell cycle arrest in human A549 cells assessed as cell accumulation at G2/M phase at 4 uM after 48 hrs by propidium iodide staining based flow cytometry (reference value: 23.75%); type: functional
Hs-578T = assay: Growth inhibition of human Hs578T cells after 48 hrs by sulforhodamine B assay; type: functional
MCF7 [2] = assay: cells; settings: Homo sapiens, MCF7, 48 h
Description: Cytotoxicity against human MCF7 cells after 48 hrs by MTT assay

UACC-257 = assay: Growth inhibition of human UACC257 cells after 48 hrs by sulforhodamine B assay; type: functional; settings: UACC-257, 48 h
HT-29 = assay: Cytotoxicity against human HT-29 cells after 48 hrs by MTT assay; type: functional, cell-based; settings: HT-29, 48 h, read-out: IC50
IGROV-1 = assay: Growth inhibition of human IGROV1 cells after 48 hrs by sulforhodamine B assay; type: functional; settings: IGROV-1, 48 h
A549 [3] = assay: cells; settings: Homo sapiens, A549, 48 h
Description: Cytotoxicity against human A549 cells after 48 hrs by MTT assay

RXF 393 = assay: Growth inhibition of human RXF393 cells after 48 hrs by sulforhodamine B assay; type: functional; settings: RXF 393, 48 h
MOLT-4 = assay: Growth inhibition of human MOLT4 cells after 48 hrs by sulforhodamine B assay; type: functional; settings: MOLT-4, 48 h
A-375 = assay: Cytotoxicity against human A375 cells after 48 hrs by MTT assay; type: functional, cell-based; settings: A-375, 48 h
SNB-19 = assay: Growth inhibition of human SNB19 cells after 48 hrs by sulforhodamine B assay; type: functional; settings: SNB-19, 48 h
MCF7 [4] = assay: Growth inhibition of human MCF7 cells after 48 hrs by sulforhodamine B assay; type: functional; settings: MCF7, 48 h
MDA-MB-435 = assay: Growth inhibition of human MDA-MB-435 cells after 48 hrs by sulforhodamine B assay; type: functional; settings: MDA-MB-435, 48 h
K562 = assay: Growth inhibition of human K562 cells after 48 hrs by sulforhodamine B assay; type: functional; settings: K562, 48 h
A549 [5] = assay: Growth inhibition of human A549 cells after 48 hrs by sulforhodamine B assay; type: functional; settings: A549, 48 h
PC-3 = assay: Growth inhibition of human PC3 cells after 48 hrs by sulforhodamine B assay; type: functional; settings: PC-3, 48 h
HCC 2998 = assay: Growth inhibition of human HCC2998 cells after 48 hrs by sulforhodamine B assay; type: functional; settings: HCC 2998, 48 h
A549 [6] = assay: Cell cycle arrest in human A549 cells assessed as cell accumulation at G0/G1 phase at 2 uM after 48 hrs by propidium iodide staining based flow cytometry (reference value: 70.15%); type: functional
COLO 205 = assay: Growth inhibition of human COLO205 cells after 48 hrs by sulforhodamine B assay; type: functional; settings: COLO 205, 48 h
A549 [7] = assay: Cell cycle arrest in human A549 cells assessed as cell accumulation at G2/M phase at 2 uM after 48 hrs by propidium iodide staining based flow cytometry (reference value: 23.75%); type: functional
KM12 = assay: Growth inhibition of human KM12 cells after 48 hrs by sulforhodamine B assay; type: functional; settings: KM12, 48 h
HCT-15 = assay: Growth inhibition of human HCT15 cells after 48 hrs by sulforhodamine B assay; type: functional; settings: HCT-15, 48 h
A549 [8] = assay: Induction of apoptosis in human A549 cells assessed as increase in caspase3 activity using AFC-conjugated Ac-DEVD as substrate at 2 uM after 48 hrs by fluorescence assay relative to control; type: functional
CAKI-1 = assay: Growth inhibition of human CAKI-1 cells after 48 hrs by sulforhodamine B assay; type: functional; settings: CAKI-1, 48 h
SR = assay: Growth inhibition of human SR cells after 48 hrs by sulforhodamine B assay; type: functional
MDA-MB-468 = assay: Growth inhibition of human MDA-MB-468 cells after 48 hrs by sulforhodamine B assay; type: functional; settings: MDA-MB-468, 48 h
BT-549 = assay: Growth inhibition of human BT549 cells after 48 hrs by sulforhodamine B assay; type: functional; settings: BT-549, 48 h
SK-MEL-5 = assay: Growth inhibition of human SK-MEL-5 cells after 48 hrs by sulforhodamine B assay; type: functional; settings: SK-MEL-5, 48 h
A549 [9] = assay: Cell cycle arrest in human A549 cells assessed as cell accumulation at G0/G1 phase at 4 uM after 48 hrs by propidium iodide staining based flow cytometry (reference value: 70.15%); type: functional
OVCAR-4 = assay: Growth inhibition of human OVCAR4 cells after 48 hrs by sulforhodamine B assay; type: functional; settings: OVCAR-4, 48 h
OVCAR-3 = assay: Growth inhibition of human OVCAR3 cells after 48 hrs by sulforhodamine B assay; type: functional; settings: OVCAR-3, 48 h
HCT-116 = assay: Growth inhibition of human HCT116 cells after 48 hrs by sulforhodamine B assay; type: functional; settings: HCT-116, 48 h
SK-MEL-28 = assay: Growth inhibition of human SK-MEL-28 cells after 48 hrs by sulforhodamine B assay; type: functional; settings: SK-MEL-28, 48 h
SNB-75 = assay: Growth inhibition of human SNB75 cells after 48 hrs by sulforhodamine B assay; type: functional; settings: SNB-75, 48 h
SW-620 = assay: Growth inhibition of human SW620 cells after 48 hrs by sulforhodamine B assay; type: functional; settings: SW-620, 48 h
LOX IMVI = assay: Growth inhibition of human LOXIMVI cells after 48 hrs by sulforhodamine B assay; type: functional
ACHN = assay: Growth inhibition of human ACHN cells after 48 hrs by sulforhodamine B assay; type: functional
A549 [10] = assay: Induction of apoptosis in human A549 cells assessed as viable cells at 2 uM after 48 hrs by annexin-V FITC/propidium iodide staining based FACS analysis; type: functional; settings: A549, 48 h, read-out: Activity

- IC50 (MCF7 [2]): 3.3 µM
- IC50 (A549 [3]): 0.9 µM
- GI50 (MOLT-4): 2.89 µM
- GI50 (MCF7 [4]): 1.32 µM
- GI50 (MDA-MB-435): 0.3 µM
- GI50 (K562): 0.43 µM
- GI50 (A549 [5]): 1.99 µM
- GI50 (PC-3): 3.14 µM
- GI50 (HCC 2998): 6.18 µM
- GI50 (COLO 205): 6.37 µM
- GI50 (HCT-15): 0.4 µM
- GI50 (MDA-MB-468): 3.52 µM
- GI50 (BT-549): 2.71 µM
- GI50 (SK-MEL-5): 2.03 µM
- GI50 (OVCAR-4): 2.07 µM
- GI50 (OVCAR-3): 1.52 µM
- GI50 (HCT-116): 1.43 µM
- GI50 (SK-MEL-28): 3.31 µM
- GI50 (SW-620): 1.08 µM
- GI50 (ACHN): 1.62 µM
Compound: COc1ccc(/C=C/C(=O)c2cc(OC)c(OC)c(OC)c2)cc1OCC(=O)Nc1nc2ccc(OC(F)(F)F)cc2s1
- GI50 (UACC-62): 9.52 µM
- Activity (A549 [1]): 83.21%
- GI50 (Hs-578T): 3.08 µM
- GI50 (UACC-257): 8.08 µM
- IC50 (HT-29): 1.1 µM
- GI50 (IGROV-1): 2.54 µM
- GI50 (RXF 393): 1.58 µM
- IC50 (A-375): 2.4 µM
- GI50 (SNB-19): 1.58 µM
- Activity (A549 [6]): 8.51%
- Activity (A549 [7]): 80.73%
- GI50 (KM12): 1.51 µM
- fold change (FC) (A549 [8]): 4
- GI50 (CAKI-1): 2.2 µM
- GI50 (SR): 0.39 µM
- Activity (A549 [9]): 8.68%
- GI50 (SNB-75): 0.34 µM
- GI50 (LOX IMVI): 0.47 µM
- viability at 2 µM (A549 [10]): 30.4%
